Measured values: BigSolDB 2.1

CN1CCN(c2cc3c(cc2F)c(=O)c(C(=O)O)cn3-c2ccc(F)cc2)CC1
solubility (mole fraction)
Conditions	293.15 K	295.15 K	298.15 K	300.15 K	303.15 K	305.15 K	308.15 K	310.15 K	313.15 K
in acetone	0.0052	0.0058	0.0067	0.0073	0.0081	0.0087	0.0096	0.0104	0.011
in ethanol	0.0387	0.0435	0.0507	0.0559	0.0636	0.0683	0.0754	0.0795	0.0856
in methanol	0.0064	0.0068	0.0073	0.0077	0.0084	0.0088	0.0095	0.0099	0.0104
